Test results from patent publication EP1304101A1, “Composition and method for use of pyridinium derivatives in cosmetic and therapeutic applications” (Torrent Pharmaceuticals Ltd, priority 2001, dated 2003).

Assays:
AGE-BSA = molecular target: T1, AGE-BSA (Bos taurus, UniProt P02769); experiment: In-vitro AGE breaking activity by ELISA (16 weeks AGE-BSA incubated with test compound); assay type: biochemical, bovine; conditions: for % Breakage: 37°C, 24 hours
T1 construct: Bovine serum albumin (fraction V) (BSA); from tissue
Experimental: AGE breaking activity has been confirmed by the screening procedure as mentioned below: • Materials: • Bovine serum albumin (fraction V) (BSA) • Glucose, analytical grade • Phosphate buffered saline (PBS) • Equipment: • Microplate ELISA Reader - Spectramax Plus (Molecular Devices, USA) • Microplate washer, (Bio -Tec Instruments, USA) • pH meter • Methods of experiment: Elisa (Enzyme Linked Immunosorbent Assay) 160 mg/ml of protein, bovine serum albumin, BSA and 1.6M glucose sugar were dissolved in phosphate buffered saline, PBS. Sodium azide was added at 0.02% concentration as a preservative. The solution was filtered asceptically through a 0.22 µM filter and kept for aging at 37°C for 16 weeks. After 16 weeks the solution was dialyzed against PBS, aliquoted and stored at - 20°C.
To determine the AGE breaking activity, 10 µg/ml of the 16 weeks AGE-BSA was incubated with different concentrations of the test compounds at 37°C for 24 hours and AGE breaking activity of the test compounds by ELISA was determined.
Different concentrations of 16 weeks AGE-BSA were coated on a microtitre plate as standard. Each concentration is coated in triplicates. • 2. The test samples were coated on microtitre plate at a concentration of 5 ng. to 20 ng per well in triplicates. • 3. The plate was incubated at 37°C for one hour. • 4. After incubation the plate was washed with PBST (PBS with 0.05% Tween 20). • 5. Blocking with 5% skimmed milk in PBS at 37°C for one hour was done. • 6. The plate was washed with PBST. • 7. Primary antibody against AGE-BSA was added and the plate is incubated at 37°C for one hour. • 8. The plate was washed with PBST • 9. Secondary antibody anti rabbit HRPO (Horse-Radish Per Oxidase) conjugate was added and the plate is incubated at 37°C for one hour. • 10. The plate was washed with PBST. • 11. Colour development with OPD (orthophenylenediamine dihydrochloride) and hydrogen peroxide was done. • 12. OD (optical density) at (450nm reading - 620nm reading) was measured after incubation at 37°C for 15 minutes with Microplate ELISA Reader.
The breaker activity of the compounds were determined by the following formula: % Breaker activity =(OD450-620 Control - OD450-620 Test)/(OD450-620 Control)x 100 [formula] OD450-620Control= Absorbance of 20ng AGE-BSA after incubation at 37°C for 24 hours without test compound OD450-620Test= Absorbance of 20ng AGE-BSA after incubation at 37°C for 24 hours with required concentration of test compound

[1] = Free radical scavenging activity on ABTS radical cation (absorbance at 730nm); assay type: biochemical
Experimental: This method measures the relative ability of free radical scavenging substances to scavenge the ABTS ^.+ i.e. 2,2-Azino-bis-(3-ethyl benzo thiazoline-6-sulfonate) radical cation as compared to a standard amount of standard or free radical scavengers antioxidants. Incubation of ABTS with Peroxidase (metmyoglobin) and hydrogen peroxide results in the production of radical cation ABTS^.+ . This species is blue- green in colour and can be detected at 730nm. Antioxidants or free radical scavengers in the added sample that causes suppression of the color to a degree that is proportional to their concentration.
• A. Phosphate Citrate Buffer (pH 5.0): 48.5ml of 0.1M citric acid with sufficient 0.2M disodium hydrogen phosphate to produce 100 ml. • B. Phosphate Buffer Saline (PBS): Dissolve 40.0g of NaCl, 1.0g of KCI, 1.0g of KH2PO4 and 3.05g of Na2HPO4 in 1 litre milli-Q water. Dilute 200ml of above solution to 1 litre with milli-Q water (pH 7.4-7.6). • C. 3µM stock solution of Peroxidase was prepared in phosphate buffer saline pH 7.4(PBS). • D. 1.08 mM stock solution of Hydrogen peroxide was prepared in phosphate buffer saline pH 7.4 (PBS).
1 tablet (10mg) was dissolved in phosphate citrate buffer (pH 5.0).
5.0ml of ABTS stock solution was diluted with PBS to 20 ml.
320 µg of the enzyme was dissolved in 2.5 ml of PBS.
12µl of Hydrogen Peroxide (30%w/v) was diluted to 100ml with PBS.
0.1mM of stock solution of the drug was prepared which was serially diluted in PBS to get solutions of different concentrations.
To 18ml of ABTS stock solution, 100µl of Horseradish Peroxidase stock solution was added.
As soon as 1.5 ml of hydrogen peroxide solution was added to the above solution, blue-green colour of the ABTS radicals appeared. This solution was incubated at 30°C for 30 min.
980µl of ABTS radical stock solution was added to an eppendorf tube. To it was added 100µl of various PBS solution.
980µl of ABTS radical stock solutions were added to different eppendorf tubes. To it were added 100µl of various concentrations of drug solution.
The absorbance of control and test samples was recorded immediately at 730nm taking PBS as blank.
Calculation: The percent antioxidant activity was calculated according to the formula: % Antioxidant activity = [O.D of test sample/O.D of control*100]-100.

[2] = comparison in words based on Table 2

T1 sequence (P02769 25-607): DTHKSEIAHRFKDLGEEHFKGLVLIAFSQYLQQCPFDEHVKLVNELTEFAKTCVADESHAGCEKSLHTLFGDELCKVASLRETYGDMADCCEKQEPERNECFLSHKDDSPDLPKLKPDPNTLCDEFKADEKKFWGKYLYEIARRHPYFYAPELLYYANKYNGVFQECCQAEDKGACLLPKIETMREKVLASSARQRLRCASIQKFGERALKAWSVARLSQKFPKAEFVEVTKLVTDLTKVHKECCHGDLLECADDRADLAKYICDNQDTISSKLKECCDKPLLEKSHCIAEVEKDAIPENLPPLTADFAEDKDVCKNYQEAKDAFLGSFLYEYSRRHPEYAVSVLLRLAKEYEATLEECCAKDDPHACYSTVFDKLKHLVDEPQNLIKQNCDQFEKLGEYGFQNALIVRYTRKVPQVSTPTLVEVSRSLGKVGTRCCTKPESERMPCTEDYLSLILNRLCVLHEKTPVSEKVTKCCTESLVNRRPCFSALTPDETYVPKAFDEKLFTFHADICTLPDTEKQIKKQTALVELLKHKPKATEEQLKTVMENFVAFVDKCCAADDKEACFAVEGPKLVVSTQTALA

SMILES	% Breakage (AGE-BSA; 10 mM test compound) [%]	Relative Free Radical Scavenging Activity(%) on ABTS ([1]; 11.5µM) [%]	Relative Free Radical Scavenging Activity(%) on ABTS ([1]; 23.0µM) [%]	Relative Free Radical Scavenging Activity(%) on ABTS ([1]; 46.0µM) [%]	Relative Free Radical Scavenging Activity(%) on ABTS ([1]; 92.5µM) [%]	further results
CCOC(=O)C[n+]1cccc(C(=O)NNc2ccccn2)c1.[Br-] [Compound 4, 1-(2-ethoxy-2-oxoethyl) -3-(2-(2-pyridyl) hydrazinocarbonyl) pyridinium bromide]	30	58.2	64.3	69.3	98.6	AGE breaking activity compared to PTB (AGE-BSA; [2]): superior; Relative Free Radical Scavenging Activity(%) on ABTS ([1]; 925µM): 100%
COCCOC(=O)c1ccc[n+](CC(=O)c2ccc(Cl)cc2Cl)c1 [Compound 22, 1-(2-(2', 4'-dichlorophenyl)-2-oxoethyl)-3-(2(methoxy)ethyloxycarbonyl) pyridinium bromide]	13	27.9	50.9	69.3	79.7	% Breakage (AGE-BSA; 25 mM test compound): 41%; Relative Free Radical Scavenging Activity(%) on ABTS ([1]; 925µM): 100%
COCCNC(=O)c1ccc[n+](CC(=O)c2ccc(Cl)cc2Cl)c1.[Br-] [Compound 38, 1-(2', 4'-dichlorophenyl-2-oxoethyl)-3-(2-methoxyethylaminocarbonyl)-pyridinium bromide]		47.2	54.8	71.0	89.5	% Breakage (AGE-BSA; 5 mM test compound): 17.66%; Relative Free Radical Scavenging Activity(%) on ABTS ([1]; 925µM): 100%
CS(=O)(=O)NNC(=O)c1ccc[n+](CC(=O)c2cccs2)c1.[Cl-] [Compound 45, 1-(2-thien-2'-yl-2-oxoethyl)-3-(methanesulfonyl hydrazinocarbonyl) pyridinium chloride]	17.53	53.9	56.2	78.7	99.8	Relative Free Radical Scavenging Activity(%) on ABTS ([1]; 925µM): 100%
CC(C)S(=O)(=O)NNC(=O)c1ccc[n+](CC(=O)c2cccs2)c1 [Compound 50, 1-(2-thien-2'-yl-2-oxoethyl)-3-(isopropylsulfonyl hydrazinocarbonyl) pyridinium bromide]	31.45	3.30	23.06	54.95	89.31	AGE breaking activity compared to PTB (AGE-BSA; [2]): superior
CS(=O)(=O)NNC(=O)c1ccc[n+](CC(=O)N2CCC(Cc3ccccc3)CC2)c1.[Cl-] [Compound 51, 1-(2-(4-benzylpiperidin-1-yl)-2-oxoethyl)-3-(methanesulfonyl hydrazinocarbonyl) pyridinium chloride]	20.94	0.00	21.64	52.82	83.94	
CS(=O)(=O)NNC(=O)c1cc(Br)c[n+](CC(=O)c2cccs2)c1 [Compound 53, 1-(2-thien-2'-yl-2-oxoethyl)-3-(methanesulfonyl hydrazinocarbonyl)-5-bromo pyridinium bromide]						% Breakage (AGE-BSA; 2.5 mM test compound): 29.36%
CS(=O)(=O)NNC(=O)c1ccc[n+](CC(=O)c2ccc(Cl)s2)c1.[Br-] [Compound 55, 1-(2-(5-chlorothien-2-yl)-2-oxoethyl)-3-(methanesulfonyl hydrazinocarbonyl) pyridinium bromide]	40.85	46.47	84.97	99.50	99.93	
O=C(NNC(=O)c1ccc[n+](CC(=O)c2cc([N+](=O)[O-])cs2)c1)c1ccc[n+](CC(=O)c2cc([N+](=O)[O-])cs2)c1 [Compound 56, N, N'-bis [3-carbonyl-1-(2-(4-nitrothien-2-yl)-2-oxoethyl)pyridinium] hydrazine dichloride]	75.92	43.0			97.7	Relative Free Radical Scavenging Activity(%) on ABTS ([1]; 23 µM): 57.2%; Relative Free Radical Scavenging Activity(%) on ABTS ([1]; 46 µM): 71.6%; Relative Free Radical Scavenging Activity(%) on ABTS ([1]; 925µM): 100%
Cc1ccc(C(=O)NNS(C)(=O)=O)c[n+]1CC(=O)c1cccs1 [Compound 57, 1-(2-thien-2'-yl-2-oxoethyl)-3-(methanesulfonyl hydrazinocarbonyl) -6-methyl pyridinium bromide]						% Breakage (AGE-BSA; 1 mM test compound): 77.69%
Cc1ccc(C(=O)C[n+]2cccc(C(=O)NNC(=O)c3ccc[n+](CC(=O)c4ccc(C)s4)c3)c2)s1 [Compound 58, N, N'-bis [3-carbonyl-1-(2-(5-methylthien-2-yl)-2-oxoethyl)pyridinium] hydrazine dichloride]	81.95					
CCOC(=O)C1CCCN1C(=O)C[n+]1cccc(C(=O)NNC(=O)c2ccc[n+](CC(=O)N3CCCC3C(=O)OCC)c2)c1 (stereo not shown) [Compound 59, N, N'-bis [3-carbonyl-1-(2-(2-ethoxycarbonyl pyrrolidin-1-yl)-2-oxoethyl)pyridinium] hydrazine dichloride]	20.31					
NC(=O)c1cc(C(=O)NNC(=O)c2ccc[n+](CC(=O)c3cccs3)c2)c[n+](CC(=O)c2cccs2)c1 [Compound 60, 1-[1-(2-thien-2'-yl-2-oxoethyl)-5-aminocarbonyl-3-carbonylpyridinium]-2-[1-(2-Thien-2'-yl-2-oxoethyl)-3-carbonylpyridinium] hydrazine dichloride]						% Breakage (AGE-BSA; 1 mM test compound): 95.36%
CCOC(=O)C1CSCN1C(=O)C[n+]1cccc(C(=O)NNS(C)(=O)=O)c1.[Cl-] (stereo not shown) [Compound 61, 1-(2-(4-carboethoxy-thiazolidin-3-yl)-2-oxoethyl) -3-(methanesulfonyl hydrazinocarbonyl) pyridinium chloride]	25.06					
O=C(NNC(=O)c1ccc[n+](CC(=O)c2ccc(Cl)s2)c1)c1ccc[n+](CC(=O)c2ccc(Cl)s2)c1 [Compound 62, N, N'-bis [3-carbonyl-1-(2-(5-chlorothien-2-yl)-2-oxoethyl)pyridinium] hydrazine dichloride]	78.41					AGE breaking activity compared to PTB (AGE-BSA; [2]): superior; potency (AGE breaking activity compared to PTB) (AGE-BSA; [2]): significantly much higher
O=C(C[n+]1ccc(C(=O)NCCOC(=O)c2ccccc2)cc1)Nc1ccccc1.[Cl-] [Compound 66, 1-(2-phenylamino-2-oxoethyl)-4-[2-(benzoyloxy)ethylaminocarbonyl] pyridinium chloride]	19.07					
NC(=O)c1ccc[n+](CC(=O)c2cccs2)c1 [Compound 85, 3-Carbonylamino-1-(2-thien-2'-yl-2-oxoethyl)-pyridinium bromide]	3					
CCOC(=O)C[n+]1cccc(C(=O)NCCO)c1.[Br-] [Compound 87, 1-(2-Ethoxy-2-oxoethyl)-3-((2-hydroxyethyl)aminocarbonyl) pyridinium bromide]	43					
CCCCNC(=O)c1ccc[n+](CC(=O)Nc2ccccc2)c1.[Cl-] [Compound 94, 1-(2-Phenylamino - 2-oxoethyl) - 3 - (n-butylaminocarbonyl) pyridinium chloride]	27					
O=C(C[n+]1cccc(C(=O)NCCO)c1)Nc1ccccc1.[Cl-] [Compound 95, 1-(2- Phenylamino - 2-oxoethyl)-3-((2-hydroxyethyl)aminocarbonyl) - pyridinium chloride]						% Breakage (AGE-BSA; 20 mM test compound): 48%
O=C(C[n+]1ccsc1)c1ccccc1 [PTB, reference compound]	27					% Breakage (AGE-BSA; 20 mM test compound): 47%
